Measurements from PMC9516332 (Frontiers in Oncology, 2022).
Where two headings read alike, the source gives them in different places.

Test system: 134 cancer cell lines
Assay: Cell viability assay (ATPlite, 72 hours), IC50 on cancer cell line panel

CCc1nc(C(N)=O)c(Nc2ccc(N3CCC(N4CCN(C)CC4)CC3)c(OC)c2)nc1NC1CCOCC1 [gilteritinib]
IC50 (Homo sapiens, MG-63, read-out: IC50 in cell proliferation assay, MG-63 cell line): 377 nM
IC50 (Homo sapiens, MIA PaCa-2, read-out: IC50 in cell proliferation assay, MIA PaCa-2 cell line): 340 nM
IC50 (Homo sapiens, MKN-45, read-out: IC50 in cell proliferation assay, MKN45 cell line (MET amplification)): 1480 nM
IC50 (Homo sapiens, MOLM-13, read-out: IC50 in cell proliferation assay, MOLM-13 cell line (FLT3 ITD)): 4 nM
IC50 (Homo sapiens, MOLT-4, read-out: IC50 in cell proliferation assay, MOLT-4 cell line): 1000 nM
IC50 (Homo sapiens, MV4-11, read-out: IC50 in cell proliferation assay, MV4-11 cell line (FLT3 ITD)): 0.832 nM
IC50 (Homo sapiens, MeWo, read-out: IC50 in cell proliferation assay, MeWo cell line): 336 nM
IC50 (Homo sapiens, NCCIT, read-out: IC50 in cell proliferation assay, NCC-IT cell line): 307 nM
IC50 (Homo sapiens, NCI-H82, read-out: IC50 in cell proliferation assay, cell line NCI-H82): 300 nM
IC50 (Homo sapiens, NCI-H460, read-out: IC50 in cell proliferation assay, NCI-H460 cell line): 499 nM
IC50 (Homo sapiens, NCI-H661, read-out: IC50 in cell proliferation assay, NCI-H661 cell line): 233 nM
IC50 (Homo sapiens, NCI-H716, read-out: IC50 in cell proliferation assay, cell line NCI-H716 (FGFR2-COL14A1)): 584 nM
IC50 (Homo sapiens, NCI-H1650, read-out: IC50 in cell proliferation assay, NCI-H1650 cell line (EGFR exon19del)): 471 nM
IC50 (Homo sapiens, NCI-H1975, read-out: IC50 in cell proliferation assay, NCI-H1975 cell line (EGFR p.L858R + p.T790M)): 495 nM
IC50 (Homo sapiens, NCI-H2228, read-out: IC50 in cell proliferation assay, NCI-H2228 cell line (EML4-ALK)): 1.84 nM
IC50 (Homo sapiens, OVCAR-3, read-out: IC50 in cell proliferation assay, cell line OVCAR-3): 591 nM
IC50 (Homo sapiens, PFSK-1, read-out: IC50 in cell proliferation assay, cell line PFSK-1): 319 nM
IC50 (Homo sapiens, RL95-2, read-out: IC50 in cell proliferation assay, cell line RL95-2 (EGFR p.A289V)): 177 nM
IC50 (Homo sapiens, RPMI-7951, read-out: IC50 in cell proliferation assay, cell line RPMI-7951 (BRAF p.V600E)): 645 nM
IC50 (Homo sapiens, RS4-11, read-out: IC50 in cell proliferation assay, cell line RS4;11): 388 nM
IC50 (Homo sapiens, Rec1, read-out: IC50 in cell proliferation assay, cell line REC-1): 1390 nM
IC50 (Homo sapiens, SHP77, read-out: IC50 in cell proliferation assay, cell line SHP-77): 2470 nM
IC50 (Homo sapiens, SK-BR-3, read-out: IC50 in cell proliferation assay, cell line SK-BR-3 (ERBB2 amplification)): 12500 nM
IC50 (Homo sapiens, SK-N-AS, read-out: IC50 in cell proliferation assay, cell line SK-N-AS): 439 nM
IC50 (Homo sapiens, SK-N-FI, read-out: IC50 in cell proliferation assay, cell line SK-N-FI): 242 nM
IC50 (Homo sapiens, SK-N-MC, read-out: IC50 in cell proliferation assay, cell line SK-N-MC): 242 nM
IC50 (Homo sapiens, SK-N-SH, read-out: IC50 in cell proliferation assay, cell line SK-N-SH (ALK p.F1174L)): 415 nM
IC50 (Homo sapiens, SNU-5, read-out: IC50 in cell proliferation assay, cell line SNU-5 (MET amplification)): 466 nM
IC50 (Homo sapiens, SNU-16, read-out: IC50 in cell proliferation assay, cell line SNU-16 (FGFR2 amplification)): 1090 nM
IC50 (Homo sapiens, SNU-C2B, read-out: IC50 in cell proliferation assay, cell line SNU-C2B (EGFR p.R165Q)): 352 nM
IC50 (Homo sapiens, SU-DHL-1, read-out: IC50 in cell proliferation assay, cell line SU-DHL-1 (NPM1-ALK)): 19 nM
IC50 (Homo sapiens, SU-DHL-6, read-out: IC50 in cell proliferation assay, cell line SU-DHL-6): 993 nM
IC50 (Homo sapiens, SUP-T1, read-out: IC50 in cell proliferation assay, cell line SUP-T1): 956 nM
IC50 (Homo sapiens, SW48, read-out: IC50 in cell proliferation assay, cell line SW48 (EGFR p.G719S)): 286 nM
IC50 (Homo sapiens, SW480, read-out: IC50 in cell proliferation assay, cell line SW480): 1360 nM
IC50 (Homo sapiens, SW626, read-out: IC50 in cell proliferation assay, cell line SW626): 551 nM
IC50 (Homo sapiens, SW780, read-out: IC50 in cell proliferation assay, cell line SW780 (FGFR3-BAIAP2L1)): 483 nM
IC50 (Homo sapiens, SW837, read-out: IC50 in cell proliferation assay, cell line SW837): 1950 nM
IC50 (Homo sapiens, SW872, read-out: IC50 in cell proliferation assay, cell line SW872 (BRAF p.V600E)): 302 nM
IC50 (Homo sapiens, SW900, read-out: IC50 in cell proliferation assay, cell line SW900): 315 nM
IC50 (Homo sapiens, SW948, read-out: IC50 in cell proliferation assay, cell line SW948): 789 nM
IC50 (Homo sapiens, SW982, read-out: IC50 in cell proliferation assay, cell line SW982 (BRAF p.V600E)): 323 nM
IC50 (Homo sapiens, SW-620, read-out: IC50 in cell proliferation assay, cell line SW620): 527 nM
IC50 (Homo sapiens, T98G, read-out: IC50 in cell proliferation assay, cell line T98G): 819 nM
IC50 (Homo sapiens, TCC-SUP, read-out: IC50 in cell proliferation assay, cell line TCCSUP): 326 nM
IC50 (Homo sapiens, THP-1, read-out: IC50 in cell proliferation assay, cell line THP-1): 1120 nM
IC50 (Homo sapiens, U2OS, read-out: IC50 in cell proliferation assay, cell line U2OS): 224 nM
IC50 (Homo sapiens, U-87 MG, read-out: IC50 in cell proliferation assay, cell line U-87MG ATCC): 2250 nM
IC50 (Homo sapiens, U-118-MG, read-out: IC50 in cell proliferation assay, cell line U-118MG): 1330 nM
IC50 (Homo sapiens, UMUC3, read-out: IC50 in cell proliferation assay, cell line UM-UC-3): 461 nM
IC50 (Hs766T, read-out: IC50 in cell proliferation assay, Hs 766T cell line): 343 nM
IC50 (L-82, read-out: IC50 in cell proliferation assay, L-82 cell line (NPM1-ALK)): 2 nM
IC50 (Rh30, read-out: IC50 in cell proliferation assay, cell line Rh30): 355 nM
IC50 (read-out: IC50 in cell proliferation assay, 11-18 cell line (EGFR p.L858R)): 580 nM
IC50 (read-out: IC50 in cell proliferation assay, Hs 852.T cell line): 193 nM
IC50 (read-out: IC50 in cell proliferation assay, JAR cell line): 476 nM
IC50 (read-out: IC50 in cell proliferation assay, cell line 5637): 545 nM
IC50 (read-out: IC50 in cell proliferation assay, cell line A-388): 1300 nM
IC50 (read-out: IC50 in cell proliferation assay, cell line DB): 893 nM
IC50 (read-out: IC50 in cell proliferation assay, cell line DEL (NPM1-ALK)): 2.58 nM
IC50 (read-out: IC50 in cell proliferation assay, cell line ES-2 (BRAF p.V600E)): 712 nM
IC50 (read-out: IC50 in cell proliferation assay, cell line PA-1): 489 nM
IC50 (read-out: IC50 in cell proliferation assay, cell line PC-3): 889 nM
IC50 (read-out: IC50 in cell proliferation assay, cell line RD): 290 nM
IC50 (read-out: IC50 in cell proliferation assay, cell line RKO (BRAF p.V600E)): 1340 nM
IC50 (read-out: IC50 in cell proliferation assay, cell line RL): 2600 nM
IC50 (read-out: IC50 in cell proliferation assay, cell line RT-4 (FGFR3-TACC3)): 1390 nM
IC50 (read-out: IC50 in cell proliferation assay, cell line SR (NPM1-ALK)): 22 nM
IC50 (read-out: IC50 in cell proliferation assay, cell line T24): 329 nM
IC50 (read-out: IC50 in cell proliferation assay, cell line TT (RET p.C634W)): 178 nM
IC50 (read-out: IC50 in cell proliferation assay, cell line VA-ES-BJ): 431 nM
